{"source": "patent US20190300927A1", "about": "“METABOLIC ASSAY FOR BACTERIAL GROWTH AND GRAM TYPING” (SELUX DIAGNOSTICS, INC., priority 2018, published 2019)", "key": {"[1]": {"system": "gram-negative organisms", "details": "Fung and Miller 1973; cited from earlier work"}, "[2]": {"system": "gram-positive organisms", "details": "Fung and Miller 1973; cited from earlier work"}, "[3]": {"system": "clinical isolates of Pseudomonas aeruginosa", "experiment": "Resorufin fluorescence after 4 hour incubation with P. aeruginosa clinical isolates (FIG. 3)", "format": "cell-based", "details": "resorufin alone 100 μM, no methylene blue, Mueller-Hinton broth, Ex560/Em590", "protocol": "FIG. 3 Experiment: Four clinical isolates of P aeruginosa were inoculated into MHB at a 1:200 dilution from a 0.5 McFarland standard. Resorufin was added to each well at a 100 μM final concentration. Plates were incubated shaking for 4 hours at 37° C. Fluorescence was read at Ex560/Em590. Uninoculated MIHB with resorufin was included as a negative control."}}, "data": [{"molecule": "CN(C)c1ccc2nc3ccc(=[N+](C)C)cc-3sc2c1", "note": "[methylene blue, Methylene blue]", "values": [{"measurement": "effect of high concentrations on gram-negative organisms", "setting": "[1]", "value": "tolerated"}, {"measurement": "effect of high concentrations on gram-positive organisms", "setting": "[2]", "value": "inhibitory"}]}, {"molecule": "O=c1ccc2nc3ccc(O)cc3oc-2c1", "note": "[resorufin]", "values": [{"measurement": "remaining resorufin fluorescence after P. aeruginosa growth", "setting": "[3]", "value": "does not eliminate the resorufin fluorescence"}]}]}
